Experimental data: patent publication US20220128542A1, “TREATMENT EFFICIENCY EVALUATION” (TX MEDIC AB, priority 2019, published 2022)
Marks after values point to notes of the source that are not given here.

Test system: brain of rats subjected to severe traumatic brain injury (sTBI)
Assay: HPLC of purine-pyrimidine metabolites (energy state, oxidative/nitrosative stress) in brain after sTBI (Example 1)
Type: in vivo, rat
Experimental: They were divided into three groups:
1) n=6 animals subjected to sTBI, with drug administration after 30 minutes and sacrifice at 2 days post-TBI (Acute phase 1)
2) n=6 animals subjected to sTBI, with drug administration after 30 minutes and sacrifice at 7 days post-TBI (Acute phase 2).
3) n=6 animals subjected to sTBI, with drug administration after 3 days and sacrifice at 7 days post-TBI (Chronic phase).
The drug treatment was a subcutaneous injection of 0.5 ml of LMW-DS (15 mg/kg) and administered according to the aforementioned schematic protocol.
After the wet weight (w.w.) determination, tissue preparation was affected as previously disclosed (Tavazzi et al., Neurosurgery. 2005; 56: 582-589; Vagnozzi et al., Neurosurgery. 2007; 61: 379-388; Tavazzi et al., Neurosurgery. 2007; 61: 390-395; Amorini et al., J Cell Mol Med. 2017; 21: 530-542.). Briefly, whole brain homogenization was performed with 7 ml of ice-cold, nitrogen-saturated, precipitating solution composed by CH3CN+10 mM KH2PO4, pH 7.40, (3:1; v:v), and using an Ultra-Turrax set at 24,000 rpm/min (Janke & Kunkel, Staufen, Germany). After centrifugation at 20,690×g, for 10 min at 4° C., the clear supernatants were saved, pellets were supplemented with 3 ml of the precipitating solution and homogenized again as described above. A second centrifugation was performed (20,690×g, for 10 min at 4° C.), pellets were saved, supernatants combined with those previously obtained, extracted by vigorous agitation with a double volume of HPLC-grade CHCl3 and centrifuged as above. The upper aqueous phases containing water-soluble low-molecular weight compounds were collected, subjected to chloroform washings for two more times (this procedure allowed the removal of all the organic solvent and of any lipid soluble compound from the buffered tissue extracts), adjusted in volumes with 10 mM KH2PO4, pH 7.40, to have ultimately aqueous 10% tissue homogenates and saved at −80° C. until assayed.
Aliquots of each deproteinized tissue samples were filtered through a 0.45 μm HV Millipore filter and loaded (200 μl) onto a Hypersil C-18, 250×4.6 mm, 5 μm particle size column, provided with its own guard column (Thermo Fisher Scientific, Rodano, Milan, Italy) and connected to an HPLC apparatus consisting of a Surveyor System (Thermo Fisher Scientific, Rodano, Milan, Italy) with a highly sensitive diode array detector (equipped with a 5 cm light path flow cell) and set up between 200 and 300 nm wavelength. Data acquisition and analysis were performed by a PC using the ChromQuest® software package provided by the HPLC manufacturer.
Metabolites belonging to the purine-pyrimidine profiles (listed below) and related to tissue energy state, mitochondrial function and relative to oxidative-nitrosative stresses were separated, in a single chromatographic run, according to slight modifications of existing ion-pairing HPLC methods (Lazzarino et al., Anal Biochem. 2003; 322: 51-59; Tavazzi et al., Clin Biochem. 2005; 38: 997-1008). Assignment and calculation of the compounds of interest in chromatographic runs of tissue extracts were carried out at the proper wavelengths (206, 234 and 260 nm) by comparing retention times, absorption spectra and areas of peaks with those of peaks of chromatographic runs of freshly-prepared ultra-pure standard mixtures with known concentrations. […]

[1] = Acute phase 1: 15 mg/kg s.c. 30 min post-sTBI, sacrifice day 2
[2] = Acute phase 2: 15 mg/kg s.c. 30 min post-sTBI, sacrifice day 7

## sodium salt of dextran sulfate [LMW-DS]
15 mg/kg s.c. after sTBI
  MDA levels: significant reduction
  ascorbic acid and GSH levels: significant improvement
  levels of NAA and its substrates: significant improvements
15 mg/kg s.c., acute and chronic phases of sTBI
  nitrate concentrations: significantly decreased
[1]
  ADO brain concentration: 71.67 ± 15.87 nmol/g (w.w.)
  ADP brain concentration: 279.34 ± 29.59^b nmol/g (w.w.)
  ADP-ribose brain concentration: 137.87 ± 43.18^a nmol/g (w.w.)
  AMP brain concentration: 53.61 ± 17.91^a, c, j nmol/g (w.w.)
  ATP brain concentration: 1464.25 ± 99.09^a, h nmol/g (w.w.)
  CDP brain concentration: 25.53 ± 6.83^a, c nmol/g (w.w.)
  CDP choline brain concentration: 10.93 ± 3.22^b, h nmol/g (w.w.)
  CTP brain concentration: 18.98 ± 6.58^a, g nmol/g (w.w.)
  CoA-SH brain concentration: 21.61 ± 3.42^a, h nmol/g (w.w.)
  GDP brain concentration: 158.72 ± 24.57^a nmol/g (w.w.)
  GDP glucose brain concentration: 38.71 ± 6.86 nmol/g (w.w.)
  GMP brain concentration: 177.00 ± 32.39^a, g nmol/g (w.w.)
  GSH brain concentration: 2649.50 ± 397.31^a, d nmol/g (w.w.)
  GSSG brain concentration: 185.21 ± 48.10 nmol/g (w.w.)
  GTP brain concentration: 255.29 ± 45.21^a, g nmol/g (w.w.)
  IMP brain concentration: 67.71 ± 10.63^g, i nmol/g (w.w.)
  MDA brain concentration: 12.47 ± 2.09^a, c, g nmol/g (w.w.)
  NAA brain concentration: 6147.91 ± 989.12^a nmol/g (w.w.)
  NADH brain concentration: 15.49 ± 2.05^c, j nmol/g (w.w.)
  NADPH brain concentration: 6.22 ± 1.73 nmol/g (w.w.)
  NADP^+ brain concentration: 17.95 ± 3.28^a nmol/g (w.w.)
  NAD^+ brain concentration: 404.63 ± 51.10^a, c, i nmol/g (w.w.)
  NO2 brain concentration: 216.03 ± 41.74^a nmol/g (w.w.)
  NO3 brain concentration: 210.64 ± 91.95^d nmol/g (w.w.)
  UDP brain concentration: 61.83 ± 10.23^a, g nmol/g (w.w.)
  UDP-Gal brain concentration: 119.45 ± 12.50 nmol/g (w.w.)
  UDP-GalNac brain concentration: 19.17 ± 4.01^a nmol/g (w.w.)
  UDP-Glc brain concentration: 32.14 ± 4.59^g nmol/g (w.w.)
  UDP-GlcNac brain concentration: 95.85 ± 19.73^h, i nmol/g (w.w.)
  UMP brain concentration: 107.80 ± 21.62 nmol/g (w.w.)
  UTP brain concentration: 123.46 ± 15.42^d nmol/g (w.w.)
  acetyl-CoA brain concentration: 21.56 ± 6.22^a, g, i nmol/g (w.w.)
  adenine brain concentration: 44.82 ± 6.31^a, d, g nmol/g (w.w.)
  ascorbic acid brain concentration: 3733.10 ± 277.88^a, d nmol/g (w.w.)
  creatinine brain concentration: 24.55 ± 3.20^b, g, i nmol/g (w.w.)
  cytidine brain concentration: 15.40 ± 3.04 nmol/g (w.w.)
  cytosine brain concentration: 17.69 ± 2.50^b, d nmol/g (w.w.)
  guanine brain concentration: 4.80 ± 1.24^b nmol/g (w.w.)
  guanosine brain concentration: 20.71 ± 5.66 nmol/g (w.w.)
  hypoxanthine brain concentration: 14.47 ± 2.87^a nmol/g (w.w.)
  inosine brain concentration: 92.55 ± 31.20^c nmol/g (w.w.)
  malonyl-CoA brain concentration: 12.33 ± 1.82^b nmol/g (w.w.)
  orotic acid brain concentration: 8.80 ± 2.45^b, h, j nmol/g (w.w.)
  thymidine brain concentration: 0.69 ± 0.11 nmol/g (w.w.)
  uracil brain concentration: 14.56 ± 5.44 nmol/g (w.w.)
  uric acid brain concentration: 23.62 ± 3.77^a, d, h nmol/g (w.w.)
  uridine brain concentration: 76.35 ± 12.85^a, c nmol/g (w.w.)
  xanthine brain concentration: 9.46 ± 2.34^d nmol/g (w.w.)
  β-pseudouridine brain concentration: 6.65 ± 1.309^g, i nmol/g (w.w.)
[2]
  ADO brain concentration: 82.11 ± 16.51^a nmol/g (w.w.)
  ADP brain concentration: 264.07 ± 28.29^b, e, j nmol/g (w.w.)
  ADP-ribose brain concentration: 141.96 ± 23.56^a, e, j nmol/g (w.w.)
  AMP brain concentration: 57.70 ± 23.01^a, e, j nmol/g (w.w.)
  ATP brain concentration: 1632.23 ± 90.07^a, e, j nmol/g (w.w.)
  CDP brain concentration: 24.29 ± 6.76^a nmol/g (w.w.)
  CDP choline brain concentration: 6.91 ± 1.86 nmol/g (w.w.)
  CMP brain concentration: 15.68 ± 2.12^f, j nmol/g (w.w.)
  CTP brain concentration: 32.63 ± 3.99^e, i nmol/g (w.w.)
  CoA-SH brain concentration: 30.57 ± 6.02^f nmol/g (w.w.)
  GDP brain concentration: 126.70 ± 31.35^a, j nmol/g (w.w.)
  GDP glucose brain concentration: 49.25 ± 10.33^a nmol/g (w.w.)
  GMP brain concentration: 91.47 ± 12.35^e, i nmol/g (w.w.)
  GSH brain concentration: 2821.50 ± 242.82^a, e nmol/g (w.w.)
  GSSG brain concentration: 219.54 ± 53.36 nmol/g (w.w.)
  GTP brain concentration: 336.65 ± 35.18^a, e, j nmol/g (w.w.)
  IMP brain concentration: 102.63 ± 22.09^a nmol/g (w.w.)
  MDA brain concentration: 4.82 ± 1.73^a, e, i nmol/g (w.w.)
  NAA brain concentration: 7262.84 ± 749.73^a, e nmol/g (w.w.)
  NADH brain concentration: 13.12 ± 4.19^e nmol/g (w.w.)
  NADPH brain concentration: 7.05 ± 2.21 nmol/g (w.w.)
  NADP^+ brain concentration: 21.27 ± 4.19^b, e, j nmol/g (w.w.)
  NAD^+ brain concentration: 401.18 ± 34.53^a, e, i nmol/g (w.w.)
